In PubChem BioAssay AID248 (DTP/NCI, 2004):
Where “and” joins values, the source holds several entries; their conditions need not be identical. Equal values may be shown once. Inconclusive results and toxic doses are left out.

Tested on: L1210 leukemia ip in BDF1 mice, survival T/C
Test: NCI In Vivo Anticancer Drug Screen. Data for tumor model L1210 Leukemia (intraperitoneal) in B6D2F1 (BDF1) mice
Details: higher = longer survival
How it was run: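 Transplantable tumor model; survival measured in treated vs vehicle control mice. Value = treated/control.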

SMILES: Nc1nc2n[nH]nc2c(=O)[nH]1
- T/C (endpoint: mean survival time, dose: 1.25 mg/kg/injection, schedule: Q01DX015 (ip), vehicle: clinical formulation): 109 % of control
- T/C (endpoint: mean survival time, dose: 1.4 mg/kg/injection, schedule: Q01DX Z (ip), vehicle: carboxymethylcellulose (CMC)): 109 % of control
- T/C (endpoint: mean survival time, dose: 2.5 mg/kg/injection, schedule: Q01DX015 (ip), vehicle: clinical formulation): 107 % of control
- T/C (endpoint: mean survival time, dose: 2.8 mg/kg/injection, schedule: Q01DX Z (ip), vehicle: carboxymethylcellulose (CMC)): 109 % of control
- T/C (endpoint: mean survival time, dose: 3.13 mg/kg/injection, schedule: Q01DX010 (ip), vehicle: alkali diluted with saline): 108 % of control and 110 % of control
- T/C (endpoint: mean survival time, dose: 5.0 mg/kg/injection, schedule: Q01DX015 (ip), vehicle: clinical formulation): 107 % of control
- T/C (endpoint: mean survival time, dose: 5.0 mg/kg/injection, schedule: Q01DX Z (oral), vehicle: carboxymethylcellulose (CMC)): 115 % of control
- T/C (endpoint: mean survival time, dose: 5.59 mg/kg/injection, schedule: Q01DX Z (ip), vehicle: carboxymethylcellulose (CMC)): 118 % of control
- T/C (endpoint: mean survival time, dose: 6.25 mg/kg/injection, schedule: Q01DX010 (ip), vehicle: alkali diluted with saline): 122 % of control and 123 % of control
- T/C (endpoint: mean survival time, dose: 7.5 mg/kg/injection, schedule: Q01DX Z (sc), vehicle: carboxymethylcellulose (CMC)): 112 % of control
- T/C (endpoint: mean survival time, dose: 10.0 mg/kg/injection, schedule: Q01DX015 (ip), vehicle: clinical formulation): 117 % of control
- T/C (endpoint: mean survival time, dose: 10.0 mg/kg/injection, schedule: Q01DX Z (oral), vehicle: carboxymethylcellulose (CMC)): 103 % of control
- T/C (endpoint: mean survival time, dose: 12.5 mg/kg/injection, schedule: Q01DX006 (iv), vehicle: water): 104 % of control
- T/C (endpoint: mean survival time, dose: 12.5 mg/kg/injection, schedule: Q01DX Z (im), vehicle: water): 121 % of control
- T/C (endpoint: mean survival time, dose: 12.5 mg/kg/injection, schedule: Q01DX Z (ip), vehicle: other): 97 % of control
- T/C (endpoint: mean survival time, dose: 15.0 mg/kg/injection, schedule: Q01DX Z (sc), vehicle: carboxymethylcellulose (CMC)): 106 % of control
- T/C (endpoint: mean survival time, dose: 20.0 mg/kg/injection, schedule: Q01DX015 (ip), vehicle: water): 101 % of control
- T/C (endpoint: mean survival time, dose: 20.0 mg/kg/injection, schedule: Q01DX Z (oral), vehicle: carboxymethylcellulose (CMC)): 95 % of control
- T/C (endpoint: mean survival time, dose: 22.35 mg/kg/injection, schedule: Q01DX Z (ip), vehicle: carboxymethylcellulose (CMC)): 152 % of control
- T/C (endpoint: mean survival time, dose: 25.0 mg/kg/injection, schedule: Q01DX005 (ip), vehicle: other): 111 % of control
- T/C (endpoint: mean survival time, dose: 25.0 mg/kg/injection, schedule: Q01DX006 (iv), vehicle: water): 113 % of control
- T/C (endpoint: mean survival time, dose: 25.0 mg/kg/injection, schedule: Q01DX009 (ip), vehicle: saline): 154 % of control and 160 % of control
- T/C (endpoint: mean survival time, dose: 25.0 mg/kg/injection, schedule: Q01DX009 (sc), vehicle: carboxymethylcellulose (CMC)): 104 % of control
- T/C (endpoint: mean survival time, dose: 25.0 mg/kg/injection, schedule: Q01DX Z (ip), vehicle: other): 106 % of control
- T/C (endpoint: mean survival time, dose: 30.0 mg/kg/injection, schedule: Q01DX Z (ip), vehicle: other): 121 % of control
- T/C (endpoint: mean survival time, dose: 40.0 mg/kg/injection, schedule: Q01DX009 (ip), vehicle: other): 159 % of control
- T/C (endpoint: mean survival time, dose: 40.0 mg/kg/injection, schedule: Q01DX Z (oral), vehicle: carboxymethylcellulose (CMC)): 109 % of control
- T/C (endpoint: mean survival time, dose: 44.0 mg/kg/injection, schedule: Q01DX015 (ip), vehicle: water): 98 % of control and 115 % of control
- T/C (endpoint: mean survival time, dose: 50.0 mg/kg/injection, schedule: Q01DX001 (ip), vehicle: steriod suspending solution): 117 % of control
- T/C (endpoint: mean survival time, dose: 50.0 mg/kg/injection, schedule: Q01DX005 (ip), vehicle: other): 122 % of control
- T/C (endpoint: mean survival time, dose: 50.0 mg/kg/injection, schedule: Q01DX009 (ip), vehicle: carboxymethylcellulose (CMC)): 159 % of control
- T/C (endpoint: mean survival time, dose: 50.0 mg/kg/injection, schedule: Q01DX009 (ip), vehicle: other): 155 % of control
- T/C (endpoint: mean survival time, dose: 50.0 mg/kg/injection, schedule: Q01DX009 (ip), vehicle: saline): 156 % of control and 158 % of control
- T/C (endpoint: mean survival time, dose: 50.0 mg/kg/injection, schedule: Q01DX Z (im), vehicle: water): 160 % of control
- T/C (endpoint: mean survival time, dose: 50.0 mg/kg/injection, schedule: Q01DX Z (oral), vehicle: other): 93 % of control
- T/C (endpoint: mean survival time, dose: 50.0 mg/kg/injection, schedule: Q01DX Z (oral), vehicle: water): 98 % of control
- T/C (endpoint: mean survival time, dose: 50.0 mg/kg/injection, schedule: Q01DX Z (sc), vehicle: water): 154 % of control
- T/C (endpoint: mean survival time, dose: 60.0 mg/kg/injection, schedule: Q01DX009 (ip), vehicle: other): 152 % of control
- T/C (endpoint: mean survival time, dose: 61.0 mg/kg/injection, schedule: Q01DX015 (ip), vehicle: water): 156 % of control
- T/C (endpoint: mean survival time, dose: 62.0 mg/kg/injection, schedule: Q01DX001 (ip), vehicle: carboxymethylcellulose (CMC)): 121 % of control
- T/C (endpoint: mean survival time, dose: 62.0 mg/kg/injection, schedule: Q01DX001 (sc), vehicle: carboxymethylcellulose (CMC)): 106 % of control
- T/C (endpoint: mean survival time, dose: 64.0 mg/kg/injection, schedule: Q## X024 (ip), vehicle: other): 150 % of control
- T/C (endpoint: mean survival time, dose: 75.0 mg/kg/injection, schedule: Q01DX009 (ip), vehicle: other): 156 % of control
- T/C (endpoint: mean survival time, dose: 75.0 mg/kg/injection, schedule: Q02DX005 (ip), vehicle: carboxymethylcellulose (CMC)): 159 % of control
- T/C (endpoint: mean survival time, dose: 87.0 mg/kg/injection, schedule: Q01DX001 (ip), vehicle: water): 115 % of control and 122 % of control
- T/C (endpoint: mean survival time, dose: 87.0 mg/kg/injection, schedule: Q07DX Z (ip), vehicle: water): 121 % of control
- T/C (endpoint: mean survival time, dose: 89.4 mg/kg/injection, schedule: Q01DX Z (ip), vehicle: carboxymethylcellulose (CMC)): 154 % of control
- T/C (endpoint: mean survival time, dose: 90.0 mg/kg/injection, schedule: Q01DX009 (ip), vehicle: other): 150 % of control
- T/C (endpoint: mean survival time, dose: 90.0 mg/kg/injection, schedule: Q01DX015 (ip), vehicle: carboxymethylcellulose (CMC)): 155 % of control
- T/C (endpoint: mean survival time, dose: 90.0 mg/kg/injection, schedule: Q## X015 (ip), vehicle: carboxymethylcellulose (CMC)): 155 % of control
- T/C (endpoint: mean survival time, dose: 100.0 mg/kg/injection, schedule: Q01DX001 (ip), vehicle: steriod suspending solution): 118 % of control
- T/C (endpoint: mean survival time, dose: 100.0 mg/kg/injection, schedule: Q01DX009 (ip), vehicle: other): 152 % of control
- T/C (endpoint: mean survival time, dose: 100.0 mg/kg/injection, schedule: Q01DX009 (ip), vehicle: water): 154 % of control
- T/C (endpoint: mean survival time, dose: 100.0 mg/kg/injection, schedule: Q01DX Z (im), vehicle: water): 160 % of control
- T/C (endpoint: mean survival time, dose: 100.0 mg/kg/injection, schedule: Q#A X Z (ip), vehicle: carboxymethylcellulose (CMC)): 115 % of control
- T/C (endpoint: mean survival time, dose: 111.75 mg/kg/injection, schedule: Q01DX Z (ip), vehicle: carboxymethylcellulose (CMC)): 160 % of control
- T/C (endpoint: mean survival time, dose: 125.0 mg/kg/injection, schedule: Q01DX001 (sc), vehicle: carboxymethylcellulose (CMC)): 109 % of control
- T/C (endpoint: mean survival time, dose: 125.0 mg/kg/injection, schedule: Q## X003 (ip), vehicle: carboxymethylcellulose (CMC)): 152 % of control and 155 % of control
- T/C (endpoint: mean survival time, dose: 135.0 mg/kg/injection, schedule: Q01DX015 (ip), vehicle: carboxymethylcellulose (CMC)): 152 % of control
- T/C (endpoint: mean survival time, dose: 135.0 mg/kg/injection, schedule: Q## X015 (ip), vehicle: carboxymethylcellulose (CMC)): 152 % of control
- T/C (endpoint: mean survival time, dose: 150.0 mg/kg/injection, schedule: Q01DX009 (sc), vehicle: carboxymethylcellulose (CMC)): 150 % of control
- T/C (endpoint: mean survival time, dose: 150.0 mg/kg/injection, schedule: Q01DX Z (ip), vehicle: carboxymethylcellulose (CMC)): 156 % of control
- T/C (endpoint: mean survival time, dose: 175.0 mg/kg/injection, schedule: Q01DX001 (ip), vehicle: water): 119 % of control and 121 % of control
- T/C (endpoint: mean survival time, dose: 175.0 mg/kg/injection, schedule: Q07DX Z (ip), vehicle: water): 116 % of control
- T/C (endpoint: mean survival time, dose: 200.0 mg/kg/injection, schedule: Q01DX001 (ip), vehicle: steriod suspending solution): 120 % of control
- T/C (endpoint: mean survival time, dose: 200.0 mg/kg/injection, schedule: Q01DX009 (ip), vehicle: saline): 102 % of control
- T/C (endpoint: mean survival time, dose: 200.0 mg/kg/injection, schedule: Q01DX009 (ip), vehicle: water): 152 % of control and 160 % of control
- T/C (endpoint: mean survival time, dose: 200.0 mg/kg/injection, schedule: Q01DX Z (im), vehicle: carboxymethylcellulose (CMC)): 103 % of control
- T/C (endpoint: mean survival time, dose: 200.0 mg/kg/injection, schedule: Q01DX Z (sc), vehicle: carboxymethylcellulose (CMC)): 124 % of control
- T/C (endpoint: mean survival time, dose: 202.0 mg/kg/injection, schedule: Q01DX009 (ip), vehicle: other): 98 % of control
- T/C (endpoint: mean survival time, dose: 202.5 mg/kg/injection, schedule: Q01DX015 (ip), vehicle: carboxymethylcellulose (CMC)): 97 % of control
- T/C (endpoint: mean survival time, dose: 202.5 mg/kg/injection, schedule: Q## X015 (ip), vehicle: carboxymethylcellulose (CMC)): 97 % of control
- T/C (endpoint: mean survival time, dose: 223.5 mg/kg/injection, schedule: Q01DX Z (ip), vehicle: carboxymethylcellulose (CMC)): 107 % of control
- T/C (endpoint: mean survival time, dose: 225.0 mg/kg/injection, schedule: Q01DX015 (ip), vehicle: clinical formulation): 156 % of control
- T/C (endpoint: mean survival time, dose: 250.0 mg/kg/injection, schedule: Q01DX001 (sc), vehicle: carboxymethylcellulose (CMC)): 113 % of control
- T/C (endpoint: mean survival time, dose: 250.0 mg/kg/injection, schedule: Q06DX003 (ip), vehicle: carboxymethylcellulose (CMC)): 151 % of control
- T/C (endpoint: mean survival time, dose: 250.0 mg/kg/injection, schedule: Q## X003 (ip), vehicle: carboxymethylcellulose (CMC)): 155 % of control
- T/C (endpoint: mean survival time, dose: 300.0 mg/kg/injection, schedule: Q01DX009 (ip), vehicle: other): 119 % of control
- T/C (endpoint: mean survival time, dose: 300.0 mg/kg/injection, schedule: Q01DX009 (sc), vehicle: carboxymethylcellulose (CMC)): 151 % of control
- T/C (endpoint: mean survival time, dose: 300.0 mg/kg/injection, schedule: Q03DX Z (ip), vehicle: water): 121 % of control
- T/C (endpoint: mean survival time, dose: 350.0 mg/kg/injection, schedule: Q01DX001 (ip), vehicle: water): 116 % of control and 121 % of control
- T/C (endpoint: mean survival time, dose: 350.0 mg/kg/injection, schedule: Q07DX Z (ip), vehicle: water): 109 % of control
- T/C (endpoint: mean survival time, dose: 400.0 mg/kg/injection, schedule: Q01DX Z (sc), vehicle: carboxymethylcellulose (CMC)): 100 % of control
- T/C (endpoint: mean survival time, dose: 500.0 mg/kg/injection, schedule: Q01DX001 (ip), vehicle: carboxymethylcellulose (CMC)): 150 % of control
- T/C (endpoint: mean survival time, dose: 500.0 mg/kg/injection, schedule: Q## X003 (ip), vehicle: carboxymethylcellulose (CMC)): 95 % of control
- T/C (endpoint: mean survival time, dose: 700.0 mg/kg/injection, schedule: Q01DX001 (ip), vehicle: water): 97 % of control
- T/C (endpoint: mean survival time, dose: 750.0 mg/kg/injection, schedule: Q10DX003 (ip), vehicle: carboxymethylcellulose (CMC)): 157 % of control
- T/C (endpoint: median survival time, dose: 12.5 mg/kg/injection, schedule: Q01DX009 (ip), vehicle: other): 122 % of control
- T/C (endpoint: median survival time, dose: 25.0 mg/kg/injection, schedule: Q01DX009 (ip), vehicle: other): 122 % of control
- T/C (endpoint: median survival time, dose: 200.0 mg/kg/injection, schedule: Q01DX009 (ip), vehicle: other): 150 % of control
